# Experimental data published in patent US20210401826A1, “ABUSE DETERRENT PHARMACEUTICAL FORMULATIONS” (AVEKSHAN, LLC., priority 2018, published 2021).
# Several values for one entry are separate records, joined by “and”; a condition that tells them apart may be missing. Identical values can stand only once. Counter-ions that a name gives are not always drawn. Like-named read-outs stand apart in the source and are kept apart here.
# Columns and labels:
# [1] = Solubility study of naltrexone and methylphenidate in common solvents and household items (visual examination); assay type: physicochemical
# Description: The solubility of naltrexone and methylphenidate was evaluated in various commonly available solvents and household items, including water, cola soft drinks, ethanol, vinegar, nail polish remover, toluene, turpentine, and baking soda solution (see Table 1). The solubility results were determined by visual examination of each solution after warming and several hours of mixing. The solubility results are presented below in Table 1.
# [2] = Separation of naltrexone and methylphenidate from a 1:1 mixture using acetone; assay type: physicochemical; details: for mg NTX / MPH Recovered / % NTX / MPH Recovered / NTX / MPH: Prep. A and B
# Description: In this example, equal amounts of methylphenidate and naltrexone (20 mg each) were combined and then separated. To separate the methylphenidate from the naltrexone, only materials representing commonly available household items were used, e.g., acetone (nail polish remover), water, small glass containers, a hot plate and a coffee filter. Three sources of acetone were used, all of which are available to the public, including lab grade acetone, nail polish remover, and acetone heavy-duty cleaner.
# Conditions for the separation, such as acetone volume and extraction time, were tested and adjusted.
# [3] = 0.2% baking soda solution, aqueous buffer, thermodynamic from solid, read-out: Solubility
# [4] = 25:75 acetone:water, aqueous with cosolvent or surfactant or cyclodextrin, thermodynamic from solid, 25:75 Acetone:H2O, read-out: Solubility
# [5] = 40% ethanol, aqueous with cosolvent or surfactant or cyclodextrin, thermodynamic from solid, read-out: Solubility
# [6] = 50:50 acetone:water, aqueous with cosolvent or surfactant or cyclodextrin, thermodynamic from solid, 50:50 Acetone:H2O, read-out: Solubility
# [7] = Coca-Cola, aqueous buffer, thermodynamic from solid, read-out: Solubility
# [8] = DMF, organic solvent or mixture, thermodynamic from solid, read-out: Solubility
# [9] = DMSO, organic solvent or mixture, thermodynamic from solid, read-out: Solubility
# [10] = acetone, organic solvent or mixture, thermodynamic from solid, read-out: Solubility
# [11] = acetonitrile, organic solvent or mixture, thermodynamic from solid, read-out: Solubility
# [12] = aqueous buffer, thermodynamic from solid, 0.1M Sodium Hydroxide, read-out: Solubility
# [13] = canola oil, oil or lipid, thermodynamic from solid, read-out: Solubility
# [14] = ethanol, organic solvent or mixture, thermodynamic from solid, read-out: Solubility
# [15] = ethyl acetate, organic solvent or mixture, thermodynamic from solid, read-out: Solubility
# [16] = hexanes, organic solvent or mixture, thermodynamic from solid, read-out: Solubility
# [17] = isopropyl alcohol, organic solvent or mixture, thermodynamic from solid, read-out: Solubility
# [18] = methanol, organic solvent or mixture, thermodynamic from solid, read-out: Solubility
# [19] = methyl ethyl ketone, organic solvent or mixture, thermodynamic from solid, read-out: Solubility
# [20] = mineral spirits, organic solvent or mixture, thermodynamic from solid, read-out: Solubility
# [21] = naphtha, organic solvent or mixture, thermodynamic from solid, read-out: Solubility
# [22] = simulated gastric fluid, thermodynamic from solid, 0.1M Hydrochloric Acid, read-out: Solubility
# [23] = toluene, organic solvent or mixture, thermodynamic from solid, read-out: Solubility
# [24] = turpentine, organic solvent or mixture, thermodynamic from solid, read-out: Solubility
# [25] = vinegar, aqueous buffer, thermodynamic from solid, read-out: Solubility
# [26] = water, thermodynamic from solid, read-out: Solubility
# [27] = xylene, organic solvent or mixture, thermodynamic from solid, read-out: Solubility
# [28] = Acetone Cleaner 20 mL, listed as MPH, HCl
# [29] = Lab Grade Acetone 20 mL, listed as MPH, HCl
# [30] = Lab Grade Acetone 50 mL, listed as MPH, HCl
# [31] = Nail Polish Remover 20 mL, listed as MPH, HCl
# [32] = Nail Polish Remover 50 mL, listed as MPH, HCl
# [33] = Acetone Cleaner 20 mL, listed as NTX, HCl
# [34] = Acetone Cleaner 50 mL, listed as NTX, HCl
# [35] = Lab Grade Acetone 20 mL, listed as NTX, HCl
# [36] = Nail Polish Remover 20 mL, listed as NTX, HCl
# [37] = Nail Polish Remover 50 mL, listed as NTX, HCl
compound,measurement,setting,value
COC(=O)C(c1ccccc1)C1CCCCN1 (stereo not drawn) [Methylphenidate HCl],solubility,[1]; [3],> 1000 µg/mL
same,solubility,[1]; [4],> 1000 µg/mL
same,solubility,[1]; [5],> 1000 µg/mL
same,solubility,[1]; [6],> 1000 µg/mL
same,solubility,"[1]; Acetone, HCl",>1000 µg/mL
same,solubility,[1]; [7],> 1000 µg/mL
same,solubility,[1]; [8],> 1000 µg/mL
same,solubility,[1]; [9],> 1000 µg/mL
same,solubility,[1]; [10],> 1000 µg/mL
same,solubility,[1]; [11],> 1000 µg/mL
same,solubility,[1]; [12],> 1000 µg/mL
same,solubility,[1]; [13],< 100 µg/mL
same,solubility,[1]; [14],> 1000 µg/mL
same,solubility,[1]; [15],100 to 500 µg/mL
same,solubility,[1]; [16],100 to 500 µg/mL
same,solubility,[1]; [17],> 1000 µg/mL
same,solubility,[1]; [18],> 1000 µg/mL
same,solubility,[1]; [19],500 to 1000 µg/mL
same,solubility,[1]; [20],< 100 µg/mL
same,solubility,[1]; [21],< 100 µg/mL
same,solubility,[1]; [22],> 1000 µg/mL
same,solubility,[1]; [23],< 100 µg/mL
same,solubility,[1]; [24],< 100 µg/mL
same,solubility,[1]; [25],> 1000 µg/mL
same,solubility,[1]; [26],> 1000 µg/mL
same,solubility,[1]; [27],< 100 µg/mL
same,mg NTX / MPH Recovered,[2]; Acetone Cleaner 20 mL,15.9 mg
same,% NTX / MPH Recovered,[2]; [28],79.5% and 79.7%
same,NTX / MPH,[2]; [28],0.79 mg/mL and 0.80 mg/mL
same,NTX / MPH,[2]; Acetone Cleaner 50 mL,0.92 mg/mL
same,mg NTX / MPH Recovered,[2]; Acetone Cleaner 50 mL,18.4 mg
same,% NTX / MPH Recovered,"[2]; Acetone Cleaner 50 mL, listed as MPH, HCl",92.0% and 91.8%
same,% NTX / MPH Recovered,[2]; [29],76.4% and 73.7%
same,NTX / MPH,[2]; [29],0.76 mg/mL and 0.74 mg/mL
same,mg NTX / MPH Recovered,[2]; [29],15.3 mg and 14.7 mg
same,% NTX / MPH Recovered,[2]; [30],91.5% and 92.4%
same,NTX / MPH,[2]; [30],0.91 mg/mL and 0.92 mg/mL
same,mg NTX / MPH Recovered,[2]; [30],18.3 mg and 18.5 mg
same,mg NTX / MPH Recovered,[2]; Nail Polish Remover 20 mL,14.6 mg
same,% NTX / MPH Recovered,[2]; [31],73.0% and 79.4%
same,NTX / MPH,[2]; [31],0.73 mg/mL and 0.79 mg/mL
same,mg NTX / MPH Recovered,[2]; [31],15.9 mg
same,NTX / MPH,"[2]; Nail Polish Remover 50 mL, 20 mg each drug combined, listed as MPH, HCl",0.91 mg/mL and 0.90 mg/mL
same,% NTX / MPH Recovered,[2]; [32],91.4% and 90.1%
same,mg NTX / MPH Recovered,[2]; [32],18.3 mg and 18.0 mg
same,% of methylphenidate extracted,[2]; depending on the volume of acetone used,73-92%
O=C1CC[C@@]2(O)[C@H]3Cc4ccc(O)c5c4[C@@]2(CCN3CC2CC2)[C@H]1O5 [Naltrexone HCl],solubility,[1]; [3],> 1000 µg/mL
same,solubility,[1]; [4],> 1000 µg/mL
same,solubility,[1]; [5],> 1000 µg/mL
same,solubility,[1]; [6],> 1000 µg/mL
same,solubility,"[1]; Acetone, HCl",<100 µg/mL
same,solubility,[1]; [7],> 1000 µg/mL
same,solubility,[1]; [8],> 1000 µg/mL
same,solubility,[1]; [9],> 1000 µg/mL
same,solubility,[1]; [10],< 100 µg/mL
same,solubility,[1]; [11],100 to 500 µg/mL
same,solubility,[1]; [12],> 1000 µg/mL
same,solubility,[1]; [13],< 100 µg/mL
same,solubility,[1]; [14],> 1000 µg/mL
same,solubility,[1]; [15],< 100 µg/mL
same,solubility,[1]; [16],< 100 µg/mL
same,solubility,[1]; [17],< 100 µg/mL
same,solubility,[1]; [18],> 1000 µg/mL
same,solubility,[1]; [19],< 100 µg/mL
same,solubility,[1]; [20],< 100 µg/mL
same,solubility,[1]; [21],< 100 µg/mL
same,solubility,[1]; [22],> 1000 µg/mL
same,solubility,[1]; [23],< 100 µg/mL
same,solubility,[1]; [24],< 100 µg/mL
same,solubility,[1]; [25],> 1000 µg/mL
same,solubility,[1]; [26],> 1000 µg/mL
same,solubility,[1]; [27],< 100 µg/mL
same,% NTX / MPH Recovered,[2]; [33],5.1% and 8.5%
same,NTX / MPH,[2]; [33],0.05 mg/mL and 0.09 mg/mL
same,mg NTX / MPH Recovered,[2]; [33],1.02 mg and 1.7 mg
same,NTX / MPH,[2]; Acetone Cleaner 50 mL,0.13 mg/mL
same,% NTX / MPH Recovered,[2]; [34],13.4% and 12.5%
same,mg NTX / MPH Recovered,[2]; [34],2.68 mg and 2.5 mg
same,% NTX / MPH Recovered,[2]; [35],5.2% and 6.5%
same,NTX / MPH,[2]; [35],0.05 mg/mL and 0.06 mg/mL
same,mg NTX / MPH Recovered,[2]; [35],1.04 mg and 1.3 mg
same,% NTX / MPH Recovered,[2]; [36],5.6% and 8.6%
same,NTX / MPH,[2]; [36],0.06 mg/mL and 0.09 mg/mL
same,mg NTX / MPH Recovered,[2]; [36],1.12 mg and 1.72 mg
same,NTX / MPH,"[2]; Nail Polish Remover 50 mL, 20 mg each drug combined, listed as NTX, HCl",0.14 mg/mL and 0.15 mg/mL
same,% NTX / MPH Recovered,[2]; [37],13.8% and 15.4%
same,mg NTX / MPH Recovered,[2]; [37],2.76 mg and 3.08 mg
